A short description of data set [1]: Permeability of the blood-brain barrier by PAMPA (porcine brain lipid). The following applies: for Prediction of crossing the BBB: based on Ep correlated with 10 control drugs; for Papp at 2.5 h: pig, pH 7.4.
The target of data set [2] is recombinant human enzyme TTBK1 (1-1321) (Homo sapiens (Human), UniProt Q5TCY1). Description: Enzymatic inhibition of TTBK1 (33P-ATP radiometric kinase assay). It counts as biochemical. The following applies: recombinant human TTBK1 (1-1321), 0.005 mM ATP, 30 minutes at room temperature. On the procedure:
(§1) The final reaction mixture contains the peptide at a concentration of 0.3 mM, 10 mM magnesium acetate and 0.005 mM [33P-γ-ATP](50-1000 cpm/pmol). The reaction mixture is incubated for 30 minutes at room temperature and the reaction is stopped after the addition of 5 μl of orthophosphoric acid.

The target of data set [3] is recombinant human enzyme TTBK2(1-450) (Homo sapiens (Human), UniProt Q6IQ55). The experiment in a line: Enzymatic inhibition of TTBK2 (33P-ATP radiometric kinase assay). The format is biochemical. The following applies: recombinant human TTBK2(1-450), 0.005 mM ATP, 30 minutes at room temperature. On the procedure: as §1

Where only a bound is given, the exact number is not on record here.

Chain of recombinant human enzyme TTBK2(1-450) (Q6IQ55 1-450): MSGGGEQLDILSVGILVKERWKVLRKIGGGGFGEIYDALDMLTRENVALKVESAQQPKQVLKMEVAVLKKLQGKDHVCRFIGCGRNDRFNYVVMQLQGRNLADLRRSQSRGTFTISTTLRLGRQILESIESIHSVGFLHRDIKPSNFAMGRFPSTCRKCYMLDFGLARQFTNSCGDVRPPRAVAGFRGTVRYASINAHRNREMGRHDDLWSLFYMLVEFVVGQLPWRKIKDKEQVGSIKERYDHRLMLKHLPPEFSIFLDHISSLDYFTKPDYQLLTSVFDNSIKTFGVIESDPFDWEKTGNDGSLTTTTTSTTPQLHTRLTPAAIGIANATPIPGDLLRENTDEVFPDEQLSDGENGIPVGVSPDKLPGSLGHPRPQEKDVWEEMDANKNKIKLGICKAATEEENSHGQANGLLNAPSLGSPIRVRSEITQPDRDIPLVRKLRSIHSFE
Chain of recombinant human enzyme TTBK1 (1-1321) (Q5TCY1 whole entry): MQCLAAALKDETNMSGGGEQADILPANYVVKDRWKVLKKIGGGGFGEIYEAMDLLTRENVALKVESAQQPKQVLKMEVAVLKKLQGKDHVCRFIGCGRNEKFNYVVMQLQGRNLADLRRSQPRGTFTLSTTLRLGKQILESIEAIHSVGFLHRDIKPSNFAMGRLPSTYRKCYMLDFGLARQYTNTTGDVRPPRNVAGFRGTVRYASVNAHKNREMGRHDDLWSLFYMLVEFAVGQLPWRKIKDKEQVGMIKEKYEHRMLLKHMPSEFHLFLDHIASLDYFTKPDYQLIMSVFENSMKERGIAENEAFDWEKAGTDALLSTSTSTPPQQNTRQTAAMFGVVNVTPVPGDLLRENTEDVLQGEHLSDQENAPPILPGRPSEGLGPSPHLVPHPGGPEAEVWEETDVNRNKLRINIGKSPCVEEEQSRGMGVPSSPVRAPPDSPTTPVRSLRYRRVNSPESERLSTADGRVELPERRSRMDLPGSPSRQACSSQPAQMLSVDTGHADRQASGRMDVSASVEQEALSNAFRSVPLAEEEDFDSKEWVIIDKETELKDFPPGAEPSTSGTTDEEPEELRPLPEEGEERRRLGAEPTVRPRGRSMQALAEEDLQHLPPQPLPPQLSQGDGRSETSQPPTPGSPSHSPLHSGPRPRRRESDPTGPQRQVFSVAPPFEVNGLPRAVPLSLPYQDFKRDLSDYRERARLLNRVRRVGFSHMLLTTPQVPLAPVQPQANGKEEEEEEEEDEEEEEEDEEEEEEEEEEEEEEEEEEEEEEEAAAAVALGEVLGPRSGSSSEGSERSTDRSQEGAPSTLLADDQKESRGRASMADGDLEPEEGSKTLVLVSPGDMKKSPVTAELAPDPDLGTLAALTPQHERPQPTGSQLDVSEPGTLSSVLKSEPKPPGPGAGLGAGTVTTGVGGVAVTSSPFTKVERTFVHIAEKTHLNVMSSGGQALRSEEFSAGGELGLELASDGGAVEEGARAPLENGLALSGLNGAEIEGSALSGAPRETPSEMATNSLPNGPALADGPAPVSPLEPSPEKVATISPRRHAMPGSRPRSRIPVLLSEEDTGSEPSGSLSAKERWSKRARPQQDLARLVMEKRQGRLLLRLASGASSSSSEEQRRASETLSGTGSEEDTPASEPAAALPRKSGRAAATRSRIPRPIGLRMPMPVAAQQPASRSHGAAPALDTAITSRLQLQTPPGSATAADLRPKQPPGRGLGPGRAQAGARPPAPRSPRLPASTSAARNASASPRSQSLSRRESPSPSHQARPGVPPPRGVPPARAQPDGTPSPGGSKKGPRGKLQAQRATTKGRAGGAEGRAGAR

As a reminder, the Papp is the rate of passage across a membrane or cell layer, normalised by area and donor concentration. A lower Papp goes with slow passage. As for `c1ccc(Oc2ccc(Nc3ncnc4[nH]ccc34)cc2)cc1` [Compound 1, N-(4-phenoxyphenyl)-7H-pyrrolo[2,3-d]pyrimidin-4-amine], in data set [1], the “Prediction of crossing the BBB” value is “CNS+” and the apparent permeability (Papp) at 2.5 h is 23.2 ± 1.4 ×10⁻⁶ cm/s.
On the same counts, the results for `Clc1ccc(Oc2ccc(Nc3ncnc4[nH]ccc34)cc2)cc1` [Compound 2, N-[4-(4-chlorophenoxy)phenyl]-7H-pyrrolo[2,3-d]pyrimidin-4-amine] are “CNS+” and 11.5 ± 1 ×10⁻⁶ cm/s.
Broadly, the IC50 is the concentration that inhibits the measured activity by half. As for `Fc1ccc(Oc2ccc(Nc3ncnc4[nH]ccc34)cc2)cc1` [Compound 3, N-[4-(4-fluorophenoxy)phenyl]-7H-pyrrolo[2,3-d]pyrimidin-4-amine], the “Prediction of crossing the BBB” value in data set [1] was “CNS+”. For the same molecule, the Papp at 2.5 h in data set [1] worked out at 15.6 ± 1.3 ×10⁻⁶ cm/s. Also, the 50% inhibitory concentration (IC50) in data set [2] amounted to 0.77 ± 0.14 µM; in data set [3], 3.02 ± 0.82 µM.
`COc1ccc(Oc2ccc(Nc3ncnc4[nH]ccc34)cc2)cc1` [Compound 5, N-[4-(4-methoxyphenoxy)phenyl]-7H-pyrrolo[2,3-d]pyrimidin-4-amine]: in data set [1], the “Prediction of crossing the BBB” value is “CNS+” and the Papp at 2.5 h is 11.8 ± 0.3 ×10⁻⁶ cm/s.
Take `FC(F)(F)c1ccc(Oc2ccc(Nc3ncnc4[nH]ccc34)cc2)cc1` [Compound 6, N-[4-(4-trifluoromethylphenoxy)phenyl]-7H-pyrrolo[2,3-d]pyrimidin-4-amine]: in data set [1], the “Prediction of crossing the BBB” value was “CNS+” and the Papp at 2.5 h was found to be 7.6 ± 1.4 ×10⁻⁶ cm/s.
On the same counts, the results for `Brc1ccc(Oc2ccc(Nc3ncnc4[nH]ccc34)cc2)cc1` [Compound 7, N-[4-(4-bromophenoxy)phenyl]-7H-pyrrolo[2,3-d]pyrimidin-4-amine] are “CNS+” and 11 ± 1.2 ×10⁻⁶ cm/s.
Consider `O=[N+]([O-])c1ccc(Oc2ccc(Nc3ncnc4[nH]ccc34)cc2)cc1` [Compound 8, N-[4-(4-nitrophenoxy)phenyl]-7H-pyrrolo[2,3-d]pyrimidin-4-amine], for which, in data set [1], the “Prediction of crossing the BBB” value was “CNS+” and the apparent permeability (Papp) at 2.5 h stood at 14.3 ± 1.1 ×10⁻⁶ cm/s.
On to `Cc1ccc(Oc2ccc(Nc3ncnc4[nH]ccc34)cc2)cc1` [Compound 10, N-[4-(4-methylphenoxy)phenyl]-7H-pyrrolo[2,3-d]pyrimidin-4-amine], for which, in data set [1], the “Prediction of crossing the BBB” value was “CNS+” and the apparent permeability (Papp) at 2.5 h turned out to be 18.7 ± 1.4 ×10⁻⁶ cm/s.
As to `Cc1cccc(Oc2ccc(Nc3ncnc4[nH]ccc34)cc2)c1` [Compound 11, N-[4-(3-methylphenoxy)phenyl]-7H-pyrrolo[2,3-d]pyrimidin-4-amine], in data set [1], the “Prediction of crossing the BBB” value is “CNS+” and the Papp at 2.5 h amounted to 14 ± 0.4 ×10⁻⁶ cm/s.
In the case of `Clc1cccc(Oc2ccc(Nc3ncnc4[nH]ccc34)cc2)c1` [Compound 12, N-[4-(3-chlorophenoxy)phenyl]-7H-pyrrolo[2,3-d]pyrimidin-4-amine], in data set [1], the “Prediction of crossing the BBB” value is listed as “CNS+” and the apparent permeability coefficient (Papp) at 2.5 h was determined as 8.4 ± 1.6 ×10⁻⁶ cm/s. Further, in data set [3], the IC50 was over 100 µM.
As to `FC(F)(F)c1cccc(Oc2ccc(Nc3ncnc4[nH]ccc34)cc2)c1` [Compound 13, N-[4-(3-trifluoromethylphenoxy)phenyl]-7H-pyrrolo[2,3-d]pyrimidin-4-amine], in data set [1], the “Prediction of crossing the BBB” value was “CNS+” and the Papp at 2.5 h was 6.8 ± 1.4 ×10⁻⁶ cm/s.
With `Clc1ccccc1Oc1ccc(Nc2ncnc3[nH]ccc23)cc1` [Compound 14, N-[4-(2-chlorophenoxy)phenyl]-7H-pyrrolo[2,3-d]pyrimidin-4-amine], in data set [1], the “Prediction of crossing the BBB” value is on record as “CNS+” and the Papp at 2.5 h stood at 9.7 ± 1 ×10⁻⁶ cm/s.
As to `Clc1ccc(Oc2ccc(Nc3ncnc4[nH]ccc34)cc2)c(Cl)c1` [Compound 16, N-[4-(2.4-chlorophenoxy)phenyl]-7H-pyrrolo[2,3-d]pyrimidin-4-amine], the “Prediction of crossing the BBB” value in data set [1] is “CNS+”. The same molecule yielded a Papp at 2.5 h in data set [1] of 17.3 ± 0.1 ×10⁻⁶ cm/s. Also, the half-maximal inhibitory concentration (IC50) in data set [2] turned out to be 2.3 ± 0.54 µM; in data set [3] it was 5.72 ± 2.65 µM.
Take `COc1cccc(Oc2ccc(Nc3ncnc4[nH]ccc34)cc2)c1` [Compound 17, N-[4-(3-methoxyphenoxy)phenyl]-7H-pyrrolo[2,3-d]pyrimidin-4-amine]: in data set [1], the “Prediction of crossing the BBB” value is given as “CNS+” and the apparent permeability (Papp) at 2.5 h was 10.5 ± 0.7 ×10⁻⁶ cm/s.
For the molecule `Nc1nc(Nc2ccc(Oc3ccc(C(F)(F)F)cc3)cc2)c2cc[nH]c2n1` [Compound 18, N4-(4-(4-(trifluoromethyl)phenoxy)phenyl]-7H-pyrrolo[2,3-d]pyrimidine-2,4-diamine], in data set [1], the “Prediction of crossing the BBB” value was “CNS+” and the Papp at 2.5 h came out at 7.5 ± 0.1 ×10⁻⁶ cm/s. Also, the concentration for half-maximal inhibition (IC50) in data set [2] worked out at 0.58 ± 0.08 µM. Besides, the 50% inhibitory concentration (IC50) in data set [3] came to 4.49 ± 1.16 µM.
On the same counts, the results for `Nc1nc(Nc2ccc(Oc3cccc(C(F)(F)F)c3)cc2)c2cc[nH]c2n1` [Compound 19, N4-(4-(3-(trifluoromethyl)phenoxy)phenyl]-7H-pyrrolo[2,3-d]pyrimidine-2,4-diamine] are “CNS+”, 7.7 ± 0.6 ×10⁻⁶ cm/s, 1.32 ± 0.04 µM and 3.9 ± 0.48 µM.
`Nc1nc(Nc2ccc(Oc3ccc(Cl)cc3)cc2)c2cc[nH]c2n1` [Compound 20, N4-(4-(4-chlorophenoxy)phenyl]-7H-pyrrolo[2,3-d]pyrimidine-2,4-diamine]: in data set [1], the “Prediction of crossing the BBB” value is recorded as “CNS+” and the Papp at 2.5 h came out at 9.7 ± 1 ×10⁻⁶ cm/s.
As to `Nc1nc(Nc2ccc(Oc3cccc(Cl)c3)cc2)c2cc[nH]c2n1` [Compound 21, N4-(4-(3-chlorophenoxy)phenyl)-7H-pyrrolo[2,3-d]pyrimidine-2,4-diamine], in data set [1], the “Prediction of crossing the BBB” value is “CNS+” and the apparent permeability coefficient (Papp) at 2.5 h was 14.1 ± 0.4 ×10⁻⁶ cm/s. Moreover, in data set [2], the IC50 was 0.37 ± 0.12 µM. Besides, the IC50 in data set [3] amounted to 3.05 ± 0.07 µM.
`Nc1ccc(Sc2ccc(Nc3ncnc4[nH]ccc34)cc2)cc1` [Compound 23, N-[4-((4-aminophenyl)thio)phenyl]-7H-pyrrolo[2,3-d]pyrimidin-4-amine]: in data set [1], the “Prediction of crossing the BBB” value is on record as “CNS+” and the apparent permeability (Papp) at 2.5 h turned out to be 4.7 ± 0.5 ×10⁻⁶ cm/s.
Consider `c1ccc(COc2ccc(Nc3ncnc4[nH]ccc34)cc2)cc1` [Compound 24, N-[4-(benzyloxy)phenyl]-7H-pyrrolo[2,3-d]pyrimidin-4-amine], for which, in data set [1], the “Prediction of crossing the BBB” value is given as “CNS+” and the Papp at 2.5 h turned out to be 18.3 ± 1.2 ×10⁻⁶ cm/s.
For `O=C(c1ccccc1)c1ccc(Nc2ncnc3[nH]ccc23)cc1` [Compound 25, (4-((7H-pyrrolo[2,3-d]pyrimidin-4-yl)amino)phenyl](phenyl)methanone], in data set [1], the “Prediction of crossing the BBB” value is on record as “CNS+” and the Papp at 2.5 h was 6.9 ± 0.6 ×10⁻⁶ cm/s.
`O=C(c1ccc(F)cc1)c1ccc(Nc2ncnc3[nH]ccc23)cc1` [Compound 26, (4-((7H-pyrrolo[2,3-d]pyrimidin-4-yl)amino)phenyl](4-fluorophenyl)methanone]: in data set [1], the “Prediction of crossing the BBB” value was “CNS+” and the apparent permeability (Papp) at 2.5 h was 9.4 ± 0.4 ×10⁻⁶ cm/s.

These data come from patent US20250051335A1, “TAU-TUBULIN KINASE (TTBK) INHIBITOR COMPOUNDS” (CONSEJO SUPERIOR DE INVESTIGACIONES CIENTÍFICAS (CSIC), priority 2021, published 2025).
